In ChEMBL document CHEMBL3885881, “DrugMatrix”:

Organism: Rattus norvegicus
Assay: DrugMatrix - Regimen: Daily Repeat
Assay type: toxicity, organism-based, Sprague-Dawley
Design: regimen Daily Repeat, gender Male, age 6-8 weeks
Conditions: in vivo, po, route oral GAVAGE, […]; for ABSOLUTE BASOPHIL / ABSOLUTE EOSINOPHIL / ABSOLUTE LYMPHOCYTE / ABSOLUTE MONOCYTE / ABSOLUTE SEGMENTED NEUTROPHIL / BASOPHIL / EOSINOPHIL / ERYTHROCYTE COUNT / HEMATOCRIT / HEMOGLOBIN / LEUKOCYTE COUNT / LYMPHOCYTE / MEAN CORPUSCULAR HEMOGLOBIN / MEAN CORPUSCULAR HEMOGLOBIN CONCENTRATION / MEAN CORPUSCULAR VOLUME / MONOCYTE / NEUTROPHIL / NUCLEATED RED BLOOD CELLS / PLATELET COUNT: tissue Blood; for ALANINE AMINOTRANSFERASE / ALBUMIN / ALKALINE PHOSPHATASE / ASPARTATE AMINOTRANSFERASE / BLOOD UREA NITROGEN / CARBON DIOXIDE / CHLORIDE / CHOLESTEROL / CREATINE PHOSPHOKINASE / CREATININE / GLUCOSE / LACTATE DEHYDROGENASE / LIPASE / PHOSPHORUS / POTASSIUM / SODIUM / TOTAL BILIRUBIN / TOTAL PROTEIN / URIC ACID: tissue Plasma
[1] = 100 mg/kg, 120 h, dose level Low, time 5 day
[2] = 750 mg/kg, 72 h, dose level High, time 3 day
[3] = 750 mg/kg, 120 h, dose level High, time 5 day

`CCn1cc(C(=O)O)c(=O)c2cc(F)c(N3CCNCC3)nc21` [ENOXACIN] was tested, and the “ABSOLUTE BASOPHIL” value [1] was 0 CELLS/uL, the “ABSOLUTE EOSINOPHIL” value [1] was 262.67 CELLS/uL and the “ABSOLUTE LYMPHOCYTE” value [1] was 12714 CELLS/uL. The “ABSOLUTE MONOCYTE” value [1] was 457 CELLS/uL, the “ABSOLUTE SEGMENTED NEUTROPHIL” value [1] was 1799.67 CELLS/uL and the BASOPHIL [1] was 0%. The EOSINOPHIL [1] was 1.33%, the “ERYTHROCYTE COUNT” value [1] was 5.43 x10E6/uL and the HEMATOCRIT [1] was 34.07%. The HEMOGLOBIN [1] was 13.27 G/DL, the “LEUKOCYTE COUNT” value [1] was 15.23 x10E3/uL and the LYMPHOCYTE [1] was 83.33%. The “MEAN CORPUSCULAR HEMOGLOBIN” value [1] was 24.4 pg, the “MEAN CORPUSCULAR HEMOGLOBIN CONCENTRATION” value [1] was 38.93 G/DL and the “MEAN CORPUSCULAR VOLUME” value [1] was 62.67 fL. For the same compound, the MONOCYTE [1] was 3%, the NEUTROPHIL [1] was 12.33% and the “NUCLEATED RED BLOOD CELLS” value [1] was 0 /100WBC. For the same compound, the “PLATELET COUNT” value [1] was 958 x10E3/uL, the “ALANINE AMINOTRANSFERASE” value [1] was 51.33 u/L and the ALBUMIN [1] was 4.1 G/DL. For the same compound, the “ALKALINE PHOSPHATASE” value [1] was 295.33 u/L, the “ASPARTATE AMINOTRANSFERASE” value [1] was 76.33 u/L and the “BLOOD UREA NITROGEN” value [1] was 14.33 mg/dL. The “CARBON DIOXIDE” value [1] was 23 mmol/L, the CHLORIDE [1] was 101 MEQ/L and the CHOLESTEROL [1] was 78.33 mg/dL. For the same compound, the “CREATINE PHOSPHOKINASE” value [1] was 454 u/L, the CREATININE [1] was 0.19 mg/dL and the GLUCOSE [1] was 186.67 mg/dL. The “LACTATE DEHYDROGENASE” value [1] was 187 u/L, the LIPASE [1] was 6.33 u/L and the PHOSPHORUS [1] was 12.27 mg/dL. The POTASSIUM [1] was 6.41 MEQ/L, the SODIUM [1] was 140.57 MEQ/L and the “TOTAL BILIRUBIN” value [1] was 0.13 mg/dL. The “TOTAL PROTEIN” value [1] was 5.9 G/DL, the “URIC ACID” value [1] was 1.2 mg/dL and the “ABSOLUTE BASOPHIL” value [2] was 0 CELLS/uL. For the same compound, the “ABSOLUTE EOSINOPHIL” value [2] was 0 CELLS/uL, the “ABSOLUTE LYMPHOCYTE” value [2] was 12588.33 CELLS/uL and the “ABSOLUTE MONOCYTE” value [2] was 501.33 CELLS/uL. The “ABSOLUTE SEGMENTED NEUTROPHIL” value [2] was 1877 CELLS/uL, the BASOPHIL [2] was 0% and the EOSINOPHIL [2] was 0%. For the same compound, the “ERYTHROCYTE COUNT” value [2] was 5.55 x10E6/uL, the HEMATOCRIT [2] was 34.83% and the HEMOGLOBIN [2] was 13.57 G/DL. The “LEUKOCYTE COUNT” value [2] was 14.97 x10E3/uL, the LYMPHOCYTE [2] was 84.33% and the “MEAN CORPUSCULAR HEMOGLOBIN” value [2] was 24.47 pg. The “MEAN CORPUSCULAR HEMOGLOBIN CONCENTRATION” value [2] was 38.93 G/DL, the “MEAN CORPUSCULAR VOLUME” value [2] was 62.87 fL and the MONOCYTE [2] was 3.33%. For the same compound, the NEUTROPHIL [2] was 12.33%, the “NUCLEATED RED BLOOD CELLS” value [2] was 0 /100WBC and the “PLATELET COUNT” value [2] was 1299.33 x10E3/uL. The “ALANINE AMINOTRANSFERASE” value [2] was 54 u/L, the ALBUMIN [2] was 3.8 G/DL and the “ALKALINE PHOSPHATASE” value [2] was 389 u/L. The “ASPARTATE AMINOTRANSFERASE” value [2] was 64.33 u/L, the “BLOOD UREA NITROGEN” value [2] was 14.67 mg/dL and the “CARBON DIOXIDE” value [2] was 24.67 mmol/L. The CHLORIDE [2] was 101.67 MEQ/L, the CHOLESTEROL [2] was 66.33 mg/dL and the “CREATINE PHOSPHOKINASE” value [2] was 317.67 u/L. For the same compound, the CREATININE [2] was 0.12 mg/dL, the GLUCOSE [2] was 181.33 mg/dL and the “LACTATE DEHYDROGENASE” value [2] was 80.33 u/L. It also gave an LIPASE [2] of 10 u/L, a PHOSPHORUS [2] of 9.8 mg/dL and a POTASSIUM [2] of 5.81 MEQ/L. For the same compound, the SODIUM [2] was 140.9 MEQ/L, the “TOTAL BILIRUBIN” value [2] was 0.1 mg/dL and the “TOTAL PROTEIN” value [2] was 5.63 G/DL. For the same compound, the “URIC ACID” value [2] was 1.27 mg/dL, the “ABSOLUTE BASOPHIL” value [3] was 0 CELLS/uL and the “ABSOLUTE EOSINOPHIL” value [3] was 145 CELLS/uL. For the same compound, the “ABSOLUTE LYMPHOCYTE” value [3] was 12773 CELLS/uL, the “ABSOLUTE MONOCYTE” value [3] was 466 CELLS/uL and the “ABSOLUTE SEGMENTED NEUTROPHIL” value [3] was 1749.33 CELLS/uL. For the same compound, the BASOPHIL [3] was 0%, the EOSINOPHIL [3] was 1% and the “ERYTHROCYTE COUNT” value [3] was 5.4 x10E6/uL. For the same compound, the HEMATOCRIT [3] was 33.53%, the HEMOGLOBIN [3] was 13.27 G/DL and the “LEUKOCYTE COUNT” value [3] was 15.13 x10E3/uL. For the same compound, the LYMPHOCYTE [3] was 84.33%, the “MEAN CORPUSCULAR HEMOGLOBIN” value [3] was 24.57 pg and the “MEAN CORPUSCULAR HEMOGLOBIN CONCENTRATION” value [3] was 39.6 G/DL. For the same compound, the “MEAN CORPUSCULAR VOLUME” value [3] was 62.07 fL, the MONOCYTE [3] was 3% and the NEUTROPHIL [3] was 11.67%. For the same compound, the “NUCLEATED RED BLOOD CELLS” value [3] was 0 /100WBC, the “PLATELET COUNT” value [3] was 1091.67 x10E3/uL and the “ALANINE AMINOTRANSFERASE” value [3] was 57.67 u/L. For the same compound, the ALBUMIN [3] was 4.03 G/DL, the “ALKALINE PHOSPHATASE” value [3] was 396.33 u/L and the “ASPARTATE AMINOTRANSFERASE” value [3] was 69.67 u/L. For the same compound, the “BLOOD UREA NITROGEN” value [3] was 12.67 mg/dL, the “CARBON DIOXIDE” value [3] was 24 mmol/L and the CHLORIDE [3] was 101.33 MEQ/L. For the same compound, the CHOLESTEROL [3] was 61.33 mg/dL, the “CREATINE PHOSPHOKINASE” value [3] was 482.67 u/L and the CREATININE [3] was 0.16 mg/dL. For the same compound, the GLUCOSE [3] was 207 mg/dL, the “LACTATE DEHYDROGENASE” value [3] was 141 u/L and the LIPASE [3] was 6.67 u/L. It also gave a PHOSPHORUS [3] of 13.2 mg/dL, a POTASSIUM [3] of 5.17 MEQ/L and an SODIUM [3] of 141.5 MEQ/L. The “TOTAL BILIRUBIN” value [3] was 0.13 mg/dL, the “TOTAL PROTEIN” value [3] was 5.8 G/DL and the “URIC ACID” value [3] was 1.5 mg/dL.
